According to patent US7563805B2, “Tri-, tetra-substituted-3-aminopyrrolidine derivative” (Daiichi Pharmaceutical Co., Ltd., priority 2005, dated 2009):
Values after ≈ are worked out from the molar mass of the structure shown.

Key:
hERG K+ channel = hERG K+ channel (Homo sapiens, UniProt Q12809); experiment: hERG-K^+ channel blocking effect
E. coli NIHJ = experiment: antibacterial activity (MIC), standard method of Japanese Society of Chemotherapy; settings: Escherichia coli
P. vulgaris, 08601 = experiment: as above; settings: Proteus vulgaris, 08601, P. vulgaris
S. marscecens, 10100 = experiment: as above
P. aeruginosa, 32121 = experiment: as above; settings: Pseudomonas aeruginosa
S. aureus, 209P = experiment: as above; settings: Staphylococcus aureus
S. epidermidis, 56500 = experiment: as above; settings: Staphylococcus epidermidis, 56500, S. epidermidis
E. faecalis, ATCC 19433 = experiment: as above; settings: Enterococcus faecalis, ATCC19433, E. faecalis
[1] = tested on: S. aureus, 87037 (LVFX-resistant MRSA); experiment: as above; settings: Staphylococcus aureus, MRSA
[2] = tested on: S. pneumoniae, J24 (penicillin-intermediate resistant bacteria); experiment: as above; settings: Streptococcus pneumoniae
P. aeruginosa, 32104 = experiment: as above; settings: Pseudomonas aeruginosa
[3] = tested on: Mycobacterium tuberculosis (sensitive bacteria); experiment: anti-Mycobacterium tuberculosis (sensitive bacteria) activity, MIC; type: cell-based
[4] = tested on: Mycobacterium tuberculosis (quinolone sensitive); experiment: anti-Mycobacterium tuberculosis (quinolone sensitive) activity, MIC; type: cell-based
[5] = S. aureus, 87037 (LVFX-resistant MRSA)

Sequence of hERG K+ channel (Q12809 whole entry): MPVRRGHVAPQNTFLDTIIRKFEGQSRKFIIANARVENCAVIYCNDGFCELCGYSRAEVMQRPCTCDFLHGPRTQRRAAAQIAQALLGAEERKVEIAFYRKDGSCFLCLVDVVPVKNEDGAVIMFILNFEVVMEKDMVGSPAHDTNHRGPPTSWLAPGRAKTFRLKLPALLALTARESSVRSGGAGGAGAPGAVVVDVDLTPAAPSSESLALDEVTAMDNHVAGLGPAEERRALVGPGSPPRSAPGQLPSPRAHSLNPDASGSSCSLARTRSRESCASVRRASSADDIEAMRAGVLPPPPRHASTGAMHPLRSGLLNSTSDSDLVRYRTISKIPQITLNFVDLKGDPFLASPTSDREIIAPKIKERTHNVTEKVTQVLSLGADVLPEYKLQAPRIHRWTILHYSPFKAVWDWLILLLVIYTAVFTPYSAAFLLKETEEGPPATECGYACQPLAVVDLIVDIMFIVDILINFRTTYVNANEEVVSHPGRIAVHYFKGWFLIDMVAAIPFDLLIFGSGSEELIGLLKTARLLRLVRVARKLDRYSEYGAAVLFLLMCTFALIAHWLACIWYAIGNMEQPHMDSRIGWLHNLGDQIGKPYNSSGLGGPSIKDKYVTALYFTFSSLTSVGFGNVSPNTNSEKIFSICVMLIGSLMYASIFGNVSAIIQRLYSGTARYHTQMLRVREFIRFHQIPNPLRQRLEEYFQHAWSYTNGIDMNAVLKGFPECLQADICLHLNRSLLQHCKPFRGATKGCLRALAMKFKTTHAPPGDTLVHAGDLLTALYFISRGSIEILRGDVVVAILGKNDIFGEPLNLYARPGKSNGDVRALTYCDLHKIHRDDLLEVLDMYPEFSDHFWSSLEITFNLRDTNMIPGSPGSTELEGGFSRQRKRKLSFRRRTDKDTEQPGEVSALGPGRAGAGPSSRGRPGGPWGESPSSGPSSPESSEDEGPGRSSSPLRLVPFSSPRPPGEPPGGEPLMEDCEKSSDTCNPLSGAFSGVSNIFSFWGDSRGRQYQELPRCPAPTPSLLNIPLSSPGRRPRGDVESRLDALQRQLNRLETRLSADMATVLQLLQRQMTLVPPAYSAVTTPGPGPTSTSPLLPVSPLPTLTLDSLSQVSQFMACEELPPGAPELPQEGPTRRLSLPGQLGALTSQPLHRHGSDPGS

In the case of `COc1c(N2C[C@H](CF)[C@](C)(N)C2)c(F)cc2c(=O)c(C(=O)O)cn([C@@H]3C[C@@H]3F)c12` [Example 20, 7-[(3S,4S)-3-Amino-4-fluoromethyl-3-methylpyrrolidin-1-yl]-6-fluoro-1-[(1R,2S)-2-fluoro-1-cyclopropyl]-8-methoxy-1,4-dihydro-4-oxoquinoline-3-carboxylic acid], the melting point is reported as 187 to 189 °C, the inhibition at 30 µM (hERG K+ channel) is reported as 1.4 ± 4.5% and the inhibition at 100 µM (hERG K+ channel) is reported as 8.5 ± 6.1%. It also gave an inhibition at 300 µM (hERG K+ channel) of 14.5 ± 6%.
Work on `Cc1c(N2C[C@H](CF)[C@](C)(N)C2)c(F)cc2c(=O)c(C(=O)O)cn(C3CC3)c12` [Example 23, 7-[(3S,4S)-3-Amino-4-fluoromethyl-3-methylpyrrolidin-1-yl]-1-cyclopropyl-6-fluoro-8-methyl-1,4-dihydro-4-oxoquinoline-3-carboxylic acid] yielded a melting point of 212 to 215 °C, an inhibition at 30 µM (hERG K+ channel) of 3 ± 4.1% and an inhibition at 100 µM (hERG K+ channel) of 4.6 ± 4.7%. It also gave an inhibition at 300 µM (hERG K+ channel) of 16.7 ± 8.4%, an MIC (E. coli NIHJ) of at most 0.003 µg/mL and an MIC (P. vulgaris, 08601) of 0.006 µg/mL (≈ 0.0153 µM). For the same compound, the MIC (S. marscecens, 10100) was 0.05 µg/mL (≈ 0.128 µM), the MIC (P. aeruginosa, 32121) was 0.05 µg/mL (≈ 0.128 µM) and the MIC (S. aureus, 209P) was 0.025 µg/mL (≈ 0.0639 µM). For the same compound, the MIC (S. epidermidis, 56500) was 0.05 µg/mL (≈ 0.128 µM), the MIC (E. faecalis, ATCC 19433) was 0.1 µg/mL (≈ 0.255 µM) and the MIC [1, 5] was 0.39 µg/mL (≈ 0.996 µM). It also gave an MIC [2] of 0.05 µg/mL (≈ 0.128 µM).
In the case of `COc1c(N2C[C@@H](CF)[C@@](C)(N)C2)c(F)cc2c(=O)c(C(=O)O)cn([C@@H]3C[C@@H]3F)c12` [Example 24, 7-[(3R,4R)-3-Amino-4-fluoromethyl-3-methylpyrrolidin-1-yl]-6-fluoro-1-[(1R,2S)-2-fluoro-1-cyclopropyl]-8-methoxy-1,4-dihydro-4-oxoquinoline-3-carboxylic acid], the melting point is reported as 185 to 188 °C.
In the case of `COc1c(N2CC(C)[C@@](N)(CF)C2)c(F)cc2c(=O)c(C(=O)O)cn([C@@H]3C[C@@H]3F)c12` (stereo partly drawn) [Example 28, 7-[(3S)-3-Amino-3-fluoromethyl-4-methylpyrrolidin-1-yl]-6-fluoro-1-[(1R,2S)-2-fluoro-1-cyclopropyl]-8-methoxy-1,4-dihydro-4-oxoquinoline-3-carboxylic acid], the melting point is reported as 167 to 169 °C, the MIC (E. coli NIHJ) is reported as 0.025 µg/mL (≈ 0.0588 µM) and the MIC (P. vulgaris, 08601) is reported as 0.05 µg/mL (≈ 0.118 µM). For the same compound, the MIC (S. marscecens, 10100) was 0.39 µg/mL (≈ 0.917 µM), the MIC (P. aeruginosa, 32121) was 0.39 µg/mL (≈ 0.917 µM) and the MIC (S. aureus, 209P) was 0.025 µg/mL (≈ 0.0588 µM). The MIC (S. epidermidis, 56500) was 0.05 µg/mL (≈ 0.118 µM), the MIC (E. faecalis, ATCC 19433) was 0.2 µg/mL (≈ 0.47 µM) and the MIC [1, 5] was 0.2 µg/mL (≈ 0.47 µM). For the same compound, the MIC [2] was 0.1 µg/mL (≈ 0.235 µM).
`Cc1c(N2CC(C)[C@@](N)(CF)C2)c(F)cc2c(=O)c(C(=O)O)cn([C@@H]3C[C@@H]3F)c12` (stereo partly drawn) [Example 31, 7-[(3S)-3-Amino-3-fluoromethyl-4-methylpyrrolidin-1-yl]-6-fluoro-1-[(1R,2S)-2-fluoro-1-cyclopropyl]-8-methyl-1,4-dihydro-4-oxoquinoline-3-carboxylic acid] gave a melting point of 200 to 203 °C, an MIC (E. coli NIHJ) of 0.006 µg/mL (≈ 0.0147 µM) and an MIC (P. vulgaris, 08601) of 0.012 µg/mL (≈ 0.0293 µM). For the same compound, the MIC (S. marscecens, 10100) was 0.1 µg/mL (≈ 0.244 µM), the MIC (P. aeruginosa, 32121) was 0.05 µg/mL (≈ 0.122 µM) and the MIC (S. aureus, 209P) was 0.012 µg/mL (≈ 0.0293 µM). It also gave an MIC (S. epidermidis, 56500) of 0.025 µg/mL (≈ 0.0611 µM), an MIC (E. faecalis, ATCC 19433) of 0.1 µg/mL (≈ 0.244 µM) and an MIC [1, 5] of 0.1 µg/mL (≈ 0.244 µM). The MIC [2] was 0.05 µg/mL (≈ 0.122 µM).
`COc1c(N2CCNC(C)C2)c(F)cc2c(=O)c(C(=O)O)cn(C3CC3)c12` (stereo not shown) [GTFX, gatifloxacin, reference compound] showed an inhibition at 30 µM (hERG K+ channel) of 8.1 ± 6%, an inhibition at 100 µM (hERG K+ channel) of 17.6 ± 11.5% and an inhibition at 300 µM (hERG K+ channel) of 39 ± 10.8%. The MIC (E. coli NIHJ) was 0.006 µg/mL (≈ 0.016 µM), the MIC (P. vulgaris, 08601) was 0.006 µg/mL (≈ 0.016 µM) and the MIC (S. marscecens, 10100) was 0.1 µg/mL (≈ 0.266 µM). It also gave an MIC (P. aeruginosa, 32104) of 0.2 µg/mL (≈ 0.533 µM), an MIC (P. aeruginosa, 32121) of 0.1 µg/mL (≈ 0.266 µM) and an MIC (S. aureus, 209P) of 0.05 µg/mL (≈ 0.133 µM). The MIC (S. epidermidis, 56500) was 0.2 µg/mL (≈ 0.533 µM), the MIC (E. faecalis, ATCC 19433) was 0.39 µg/mL (≈ 1.04 µM) and the MIC [1] was 1.56 µg/mL (≈ 4.16 µM). It also gave an MIC [2] of 0.2 µg/mL (≈ 0.533 µM).
In the case of `C[C@H]1COc2c(N3CCN(C)CC3)c(F)cc3c(=O)c(C(=O)O)cn1c23` [LVFX, levofloxacin, reference compound], the MIC (E. coli NIHJ) is reported as 0.012 µg/mL (≈ 0.0332 µM), the MIC (P. vulgaris, 08601) is reported as 0.012 µg/mL (≈ 0.0332 µM) and the MIC (S. marscecens, 10100) is reported as 0.1 µg/mL (≈ 0.277 µM). It also gave an MIC (P. aeruginosa, 32104) of 0.2 µg/mL (≈ 0.553 µM), an MIC (P. aeruginosa, 32121) of 0.1 µg/mL (≈ 0.277 µM) and an MIC (S. aureus, 209P) of 0.2 µg/mL (≈ 0.553 µM). The MIC (S. epidermidis, 56500) was 0.39 µg/mL (≈ 1.08 µM), the MIC (E. faecalis, ATCC 19433) was 0.78 µg/mL (≈ 2.16 µM) and the MIC [1, 5] was over 6.25 µg/mL. The MIC [2] was 0.78 µg/mL (≈ 2.16 µM).
`CO[C@H]1/C=C/O[C@@]2(C)Oc3c(C)c(O)c4c(O)c(c(/C=N/N5CCN(C)CC5)c(O)c4c3C2=O)NC(=O)/C(C)=C\C=C\[C@H](C)[C@H](O)[C@@H](C)[C@@H](O)[C@@H](C)[C@H](OC(C)=O)[C@@H]1C` [RFP, Rifampicin] showed an MIC ([3]; H37RV, strain H37Rv) of 0.125 µg/mL (≈ 0.152 µM), an MIC ([3]; strain Kurono) of 0.06 µg/mL (≈ 0.0729 µM) and an MIC ([3]; strain Ravenel) of 0.125 µg/mL (≈ 0.152 µM). The MIC ([3]; strain TB-s 2) was 0.03 µg/mL (≈ 0.0365 µM), the MIC ([3]; strain TB-s 3) was 0.125 µg/mL (≈ 0.152 µM) and the MIC ([3]; strain TB-s 4) was 0.06 µg/mL (≈ 0.0729 µM). The MIC ([3]; strain TB-s 5) was 0.06 µg/mL (≈ 0.0729 µM), the MIC ([3]; strain TB-s 6) was 0.125 µg/mL (≈ 0.152 µM) and the MIC ([3]; strain TB-s 7) was 0.06 µg/mL (≈ 0.0729 µM). It also gave an MIC ([3]; strain TB-s 8) of 0.015 µg/mL (≈ 0.0182 µM), an MIC ([3]; strain TB-s 9) of 0.06 µg/mL (≈ 0.0729 µM) and an MIC ([3]; strain TB-s 10) of 0.06 µg/mL (≈ 0.0729 µM). The MIC ([3]; strain TB-s 11) was 0.06 µg/mL (≈ 0.0729 µM), the MIC ([3]; strain TB-s 12) was 0.125 µg/mL (≈ 0.152 µM) and the MIC ([3]; strain TB-s 13) was 0.06 µg/mL (≈ 0.0729 µM). It also gave an MIC ([3]; strain TB-s 14) of 0.03 µg/mL (≈ 0.0365 µM), an MIC ([3]; strain TB-s 15) of 0.06 µg/mL (≈ 0.0729 µM) and an MIC ([3]; strain TB-s 16) of 0.06 µg/mL (≈ 0.0729 µM). For the same compound, the MIC ([3]; strain TB-s 17) was 0.06 µg/mL (≈ 0.0729 µM), the MIC ([3]; strain TB-s 18) was 0.03 µg/mL (≈ 0.0365 µM) and the MIC ([3]; strain TB-s 19) was 0.125 µg/mL (≈ 0.152 µM). The MIC ([3]; strain TB-s 20) was 0.25 µg/mL (≈ 0.304 µM), the MIC ([3]; strain TB-s 21) was 0.03 µg/mL (≈ 0.0365 µM) and the MIC ([3]; strain TB-s 22) was 0.015 µg/mL (≈ 0.0182 µM). It also gave an MIC ([4]; strain 1 (QR-3)) of over 128 µg/mL, an MIC ([4]; strain 2 (QR-6)) of over 128 µg/mL and an MIC ([4]; strain 3 (QR-1)) of 128 µg/mL (≈ 156 µM). For the same compound, the MIC ([4]; strain 4 (QR-9)) was over 128 µg/mL, the MIC ([4]; strain MDR 1) was 16 µg/mL (≈ 19.4 µM) and the MIC ([4]; strain MDR 3) was 128 µg/mL (≈ 156 µM). It also gave an MIC ([4]; strain MDR 4) of 64 µg/mL (≈ 77.8 µM), an MIC ([4]; strain MDR 5) of 32 µg/mL (≈ 38.9 µM) and an MIC ([4]; strain MDR 7) of over 128 µg/mL. It also gave an MIC ([4]; strain MDR 9) of 128 µg/mL (≈ 156 µM), an MIC ([4]; strain MDR 12) of 128 µg/mL (≈ 156 µM) and an MIC ([4]; strain S 1) of 16 µg/mL (≈ 19.4 µM).
